In US8716284B2, “Adamantyl diamide derivatives and uses of same” (H. Lundbeck A/S, priority 2008, dated 2014) one finds Emax and Ki data, which are given here for 21 compounds.

The target of test [1] is T1, rat metabotropic glutamate receptor 5 (mGluR5) (Rattus norvegicus, UniProt P31424).
T1 construct: expressed in transfected cells; host or cells: HEK 293
Nature of the test: Calcium mobilization assay (FLIPR) for negative or positive allosteric activity, HEK 293 cells. It is filed as cell-based. The conditions noted are these: HEK293, negative allosteric modulation, inhibition of EC80 glutamate response; read-out: FLIPR maximum inhibition. The method, boiled down:
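HEK 293 cells stably expressing rat mGluR5, Fluo-4 loaded in HEPES-buffered HBSS pH 7.4 with 0.1% BSA and probenecid. Compound added with EC20 (potentiation) or EC80 (inhibition) glutamate; fluorescence read over 3 min at room temperature. Basal-subtracted maximum fluorescence change fitted to Hill equation.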

The target of test [2] is mGluR5 (Homo sapiens, UniProt P41594). In words: Radioligand binding assay, [3H]MPEP filtration binding to membrane homogenates. The conditions noted are these: 5 nM [3H]MPEP; Ki calculated from IC50 by Cheng-Prusoff. How it is done:
Binding assays were performed as described in [J. A. O'Brien et al. Mol. Pharmacol., 2003, 64, 731-740] with slight modifications. Briefly, after thawing, the membrane homogenates were resuspended in 50 mM Tris-HCl, 0.9% NaCl binding buffer at pH 7.4 to a final assay concentration of 40 μg protein/well for [^3H]methoxy-5-(2-pyridinylethynyl)pyridine ([^3H] MPEP) (American Radiolabeled Chemicals, Inc., St. Louis, Mo.) filtration binding. Incubations included 5 nM [^3H] MPEP, membranes and either buffer or varying concentrations of compound. Samples were incubated for 60 min at room temperature with shaking. Non-specific binding was defined with 10 μM MPEP. After incubation, samples were filtered over a GF/C filter (presoaked in 0.25% polyethyleneimine (PEI)) and then washed 4 times using a Tomtec® Harvester 96® Mach III cell harvester (Tomtec, Hamden, Conn.) with 0.5 mL ice-cold 50 mM Tris-HCl (pH 7.4).
IC50 values were derived from the inhibition curve and Ki values were calculated according to the Cheng and Prusoff equation of Ki=IC50/(1+[L]/Kd) described in [Y. Cheng and W. H. Prusoff Biochem. Pharmacol. 1973, 22, 3099-3108] where [L] is the concentration of radioligand and Kd is its dissociation constant at the receptor, derived from the saturation isotherm.

Chain of mGluR5 (P41594 21-1212): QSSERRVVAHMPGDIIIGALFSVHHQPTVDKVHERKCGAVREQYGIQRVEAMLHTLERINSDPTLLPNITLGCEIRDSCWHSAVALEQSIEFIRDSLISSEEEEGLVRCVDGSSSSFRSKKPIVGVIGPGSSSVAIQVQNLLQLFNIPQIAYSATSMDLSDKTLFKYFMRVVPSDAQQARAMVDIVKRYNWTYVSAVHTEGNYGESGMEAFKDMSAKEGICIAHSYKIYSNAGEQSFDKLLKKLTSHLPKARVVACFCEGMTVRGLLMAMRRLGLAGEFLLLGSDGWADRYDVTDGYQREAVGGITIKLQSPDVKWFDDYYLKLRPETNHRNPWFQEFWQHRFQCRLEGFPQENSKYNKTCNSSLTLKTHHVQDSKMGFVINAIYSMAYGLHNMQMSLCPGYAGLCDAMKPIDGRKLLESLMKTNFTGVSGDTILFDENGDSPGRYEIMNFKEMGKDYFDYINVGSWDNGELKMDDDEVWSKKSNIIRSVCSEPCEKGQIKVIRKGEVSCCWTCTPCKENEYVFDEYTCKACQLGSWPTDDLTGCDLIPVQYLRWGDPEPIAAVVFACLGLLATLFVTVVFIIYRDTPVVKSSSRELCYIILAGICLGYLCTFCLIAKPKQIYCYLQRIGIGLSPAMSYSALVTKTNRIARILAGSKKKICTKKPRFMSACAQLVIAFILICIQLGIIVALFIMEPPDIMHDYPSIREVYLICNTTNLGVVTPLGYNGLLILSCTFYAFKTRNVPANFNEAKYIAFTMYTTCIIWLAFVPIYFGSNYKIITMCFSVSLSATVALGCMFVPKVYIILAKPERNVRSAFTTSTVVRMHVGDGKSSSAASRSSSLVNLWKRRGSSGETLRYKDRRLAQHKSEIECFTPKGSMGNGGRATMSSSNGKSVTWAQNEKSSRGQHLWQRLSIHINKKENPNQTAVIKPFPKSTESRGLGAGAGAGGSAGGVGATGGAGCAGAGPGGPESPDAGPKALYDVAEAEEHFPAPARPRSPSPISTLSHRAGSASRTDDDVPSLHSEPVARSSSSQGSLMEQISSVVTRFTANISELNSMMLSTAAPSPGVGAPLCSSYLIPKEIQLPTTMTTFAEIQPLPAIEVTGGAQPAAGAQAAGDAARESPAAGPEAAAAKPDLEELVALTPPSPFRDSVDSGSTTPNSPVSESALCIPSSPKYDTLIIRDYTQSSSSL
T1 sequence (P31424 21-1171 isoform P31424-2 limits assumed): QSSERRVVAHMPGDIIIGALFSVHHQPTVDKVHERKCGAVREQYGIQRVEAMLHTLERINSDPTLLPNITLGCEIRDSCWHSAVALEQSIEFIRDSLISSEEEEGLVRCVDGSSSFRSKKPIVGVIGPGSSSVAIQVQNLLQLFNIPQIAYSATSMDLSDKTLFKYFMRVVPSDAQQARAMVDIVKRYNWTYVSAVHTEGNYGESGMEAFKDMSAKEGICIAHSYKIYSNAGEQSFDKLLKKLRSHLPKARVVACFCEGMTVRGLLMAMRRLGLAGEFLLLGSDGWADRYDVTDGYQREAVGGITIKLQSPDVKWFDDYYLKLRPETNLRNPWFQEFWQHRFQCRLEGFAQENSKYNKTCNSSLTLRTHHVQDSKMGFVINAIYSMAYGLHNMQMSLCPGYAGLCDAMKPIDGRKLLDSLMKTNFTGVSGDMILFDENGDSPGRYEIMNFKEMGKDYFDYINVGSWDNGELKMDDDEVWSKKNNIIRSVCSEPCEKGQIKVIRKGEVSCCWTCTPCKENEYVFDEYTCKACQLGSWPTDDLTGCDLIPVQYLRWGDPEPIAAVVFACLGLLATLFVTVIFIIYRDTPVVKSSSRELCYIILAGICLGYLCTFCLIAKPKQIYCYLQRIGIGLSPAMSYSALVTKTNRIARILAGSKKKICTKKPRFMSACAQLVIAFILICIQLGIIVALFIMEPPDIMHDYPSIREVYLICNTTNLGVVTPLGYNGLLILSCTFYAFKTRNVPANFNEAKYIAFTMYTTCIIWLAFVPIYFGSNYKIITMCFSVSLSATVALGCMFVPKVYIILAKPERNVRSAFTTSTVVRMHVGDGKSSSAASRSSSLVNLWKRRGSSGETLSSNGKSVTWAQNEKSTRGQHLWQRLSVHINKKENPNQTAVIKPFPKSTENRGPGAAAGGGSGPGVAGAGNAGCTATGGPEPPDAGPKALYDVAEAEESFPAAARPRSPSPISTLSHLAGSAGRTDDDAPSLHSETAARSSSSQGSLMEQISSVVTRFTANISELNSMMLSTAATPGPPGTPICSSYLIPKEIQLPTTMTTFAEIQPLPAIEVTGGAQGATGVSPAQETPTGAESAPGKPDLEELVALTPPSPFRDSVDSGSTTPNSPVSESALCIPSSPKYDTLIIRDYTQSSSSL

As for `O=C(NC12CC3CC(C1)CC(NC(=O)c1nccs1)(C3)C2)c1ccccn1` [Example 74, Pyridine-2-carboxylic acid {3-[(thiazole-2-carbonyl)-amino]-adamantan-1-yl}-amide], the Emax in test [1] was in the range of 63 to 99%. The Ki in test [2] was 6 to 700 nM.
In the same order, the values of `Cc1nc2ccc(C(=O)NC34CC5CC(C3)CC(NC(=O)c3ccccn3)(C5)C4)cc2o1` [Example 65, 2-Methyl-benzoxazole-6-carboxylic acid {3-[(pyridine-2-carbonyl)-amino]-adamantan-1-yl}-amide] are 63 to 99% and 6 to 700 nM.
For `Cc1cccc(C(=O)NC23CC4CC(CC(NC(=O)c5cccc(-c6ncccn6)c5)(C4)C2)C3)n1` [Example 44, 6-Methyl-pyridine-2-carboxylic acid [3-(3-pyrimidin-2-yl-benzoylamino)-adamantan-1-yl]-amide] the same measures were 63 to 99% and 6 to 700 nM.
For `O=C(NC12CC3CC(C1)CC(NC(=O)c1cnccn1)(C3)C2)c1cccc(F)c1` [Example 95, Pyrazine-2-carboxylic acid [3-(3-fluoro-benzoylamino)-adamantan-1-yl]-amide] the same measures were 63 to 99% and 6 to 700 nM.
As to `Cc1cccc(C(=O)NC23CC4CC(CC(NC(=O)c5ccccn5)(C4)C2)C3)n1` [Example 72, 6-Methyl-pyridine-2-carboxylic acid {3-[(pyridine-2-carbonyl)-amino]-adamantan-1-yl}-amide], in test [1], the Emax was in the range of 63 to 99%. In addition, the Ki in test [2] is 6 to 700 nM.
On to `Cn1nc2ccccc2c1C(=O)NC12CC3CC(CC(NC(=O)c4ccccn4)(C3)C1)C2` [Example 79, 2-Methyl-2H-indazole-3-carboxylic acid {3-[(pyridine-2-carbonyl)-amino]-adamantan-1-yl}-amide], for which the Ki in test [2] is 6 to 700 nM.
Consider `Cc1cccc(C(=O)NC23CC4CC(CC(NC(=O)c5cscn5)(C4)C2)C3)n1` [Example 120, 6-Methyl-pyridine-2-carboxylic acid {3-[(thiazole-4-carbonyl)-amino]-adamantan-1-yl}-amide], for which the Emax in test [1] lay within 70 to 99%. Besides, in test [2], the Ki was 6 to 700 nM.
For the compound `Cc1cncc(C(=O)NC23CC4CC(CC(NC(=O)c5cccc(F)c5)(C4)C2)C3)n1` [Example 96, 6-Methyl-pyrazine-2-carboxylic acid [3-(3-fluoro-benzoylamino)-adamantan-1-yl]-amide], the Emax in test [1] lay within 63 to 99%. Moreover, in test [2], the Ki was 6 to 700 nM.
As to `Cn1ccc(C(=O)NC23CC4CC(C2)CC(NC(=O)c2nccs2)(C4)C3)n1` [Example 19, Thiazole-2-carboxylic acid {3-[(1-methyl-1H-pyrazole-3-carbonyl)-amino]-adamantan-1-yl}-amide], the Emax in test [1] is 63 to 99%. Also, the Ki in test [2] was 6 to 700 nM.
Turning to `Cn1ccc2cc(C(=O)NC34CC5CC(C3)CC(NC(=O)c3ccccn3)(C5)C4)ccc21` [Example 69, 1-Methyl-1H-indole-5-carboxylic acid {3-[(pyridine-2-carbonyl)-amino]-adamantan-1-yl}-amide], the Emax in test [1] was in the range of 63 to 99%. The Ki in test [2] is 6 to 700 nM.
For `O=C(NC12CC3CC(C1)CC(NC(=O)c1ccccn1)(C3)C2)c1ccc2c(c1)CCN2` [Example 67, 2,3-Dihydro-1H-indole-5-carboxylic acid {3-[(pyridine-2-carbonyl)-amino]-adamantan-1-yl}-amide] the same measures were 63 to 99% and 6 to 700 nM.
As for `Cc1cccc(C(=O)NC23CC4CC(C2)CC(NC(=O)c2cccc(N5CCC[C@@H]5CO)n2)(C4)C3)n1` [Example 238, 6-((R)-2-Hydroxymethyl-pyrrolidin-1-yl)-pyridine-2-carboxylic acid {3-[(6-methyl-pyridine-2-carbonyl)-amino]-adamantan-1-yl}-amide], the Emax in test [1] fell in the range of 63 to 99%.
As to `CN(C)CCCNc1cccc(C(=O)NC23CC4CC(CC(NC(=O)c5ccccn5)(C4)C2)C3)n1` [Example 226, 6-(3-Dimethylamino-propylamino)-pyridine-2-carboxylic acid {3-[(pyridine-2-carbonyl)-amino]-adamantan-1-yl}-amide], the Emax in test [1] lay within 63 to 99%.
As to `Cc1cccc(C(=O)NC23CC4CC(CC(NC(=O)c5ccc6occc6c5)(C4)C2)C3)n1` [Example 33, 6-Methyl-pyridine-2-carboxylic acid {3-[(benzofuran-5-carbonyl)-amino]-adamantan-1-yl}-amide], the Emax in test [1] fell in the range of 63 to 99%.
Same read-out and setting: with `Cc1cccc(C(=O)NC23CC4CC(CC(NC(=O)c5ccn6ccnc6c5)(C4)C2)C3)n1` [Example 51, Imidazo[1,2-a]pyridine-7-carboxylic acid {3-[(6-methyl-pyridine-2-carbonyl)-amino]-adamantan-1-yl}-amide] the figure was 63 to 99%; with `Cc1cncc(C(=O)NC23CC4CC(C2)CC(NC(=O)c2cccc(Cl)c2F)(C4)C3)n1` [Example 152, 6-Methyl-pyrazine-2-carboxylic acid [3-(3-chloro-2-fluoro-benzoylamino)-adamantan-1-yl]-amide], 70 to 99%.
The same measure, in the same setting: with `CN1CCN(c2cccc(C(=O)NC34CC5CC(CC(NC(=O)c6ccccn6)(C5)C3)C4)n2)CC1` [Example 198, 6-(4-Methyl-piperazin-1-yl)-pyridine-2-carboxylic acid {3-[(pyridine-2-carbonyl)-amino]-adamantan-1-yl}-amide] the figure was 63 to 99%; with `Cc1cncc(C(=O)NC23CC4CC(C2)CC(NC(=O)c2nccc(C(F)(F)F)n2)(C4)C3)n1` [Example 181, 4-Trifluoromethyl-pyrimidine-2-carboxylic acid {3-[(6-methyl-pyrazine-2-carbonyl)-amino]-adamantan-1-yl}-amide], 63 to 99%; with `O=C(NC12CC3CC(C1)CC(NC(=O)c1cn4cc(Cl)ccc4n1)(C3)C2)c1cccc(F)c1` [Example 98, 6-Chloro-imidazo[1,2-a]pyridine-2-carboxylic acid [3-(3-fluoro-benzoylamino)-adamantan-1-yl]-amide], 63 to 99%.
`O=C(NC12CC3CC(C1)CC(NC(=O)c1ccncc1)(C3)C2)c1ccncc1` [Example 4, N,N′-(1,3-adamantylene)bis(4-pyridinecarboxamide)]: the Emax in test [1] was 90 to 99%.
The same measure, in the same setting: with `COc1ccc(C(=O)NC23CC4CC(C2)CC(NC(=O)c2ccccn2)(C4)C3)cc1` [Example 81, Pyridine-2-carboxylic acid [3-(4-methoxy-benzoylamino)-adamantan-1-yl]-amide] the figure was 63 to 99%.
